Values joined by “and” are separate entries in the source; they are usually repeats but may differ in a detail not shown here. Equal values may be shown once.
Experiments:
[1] = system: Rauscher Murine Leukemia Virus (MLV); experiment: Rauscher MuLV UV-XC plaque assay; type: cell-based
Protocol: One such method is used to determine the effectiveness of representative compounds and compositions of the present invention in the Rauscher and LP-BMS Murine Leukemia Virus (MLV) In Vitro Assays.
SC-1 cells were grown as monolayers in 6-well tissue culture plates (Falcon). The a test compound was added to the cultures at the time of virus inoculation (approximately 24 hours after the cells were seeded) and was present for 3 days, at which time the cultures were irradiated with UV light. All compounds were solubilized in DMSO prior to dilution in grown medium. The highest concentration of DMSO present in the cultures was 0.05%. The test cultures (triplicate cultures per drug concentrate) each contained 2 ml of test compound diluted in growth medium (Eagle's minimum) essential medium (EMEM) supplemented with 5% heat-inactivated fetal bovine serum (FBS) and 0.5 ml of the virus suspension diluted to produce a countable number of plaques per well. The six virus control cultures contained 2 ml of medium and 0.5 ml of the virus suspension. NSC606170(ddC) was included as a positive control. drug. Drug cytotoxicity control cultures (containing test compound) but no virus and cell control culture (containing no test compound) or virus were included in the assay. On day 3 post-virus inoculation, the cultures were irradiated and XC cells were added. Three days after V-irradiation, the cultures were fixed with formalin and stained with 0.1% crystal violet. The plaques were counted with the aid of a dissection microscope.
Using the procedure, the following data is generated from representative compounds of the presnet invention.

HIV = experiment: Anti-HIV activity in MT-2; type: cell-based; details: Human immunodeficiency virus 1; MT-2, summary table; read-out: MT-2 EC50
From the text: Obviously, there is a structure activity relationship with respect to the efficacy of the compounds of the present invention. Factors that affect the relationship may include steric effects, electronic effects, (electron withdrawing or electron donating ability), resonance effects, hydrophobic,hydrophilic, hydrogen bonding parameters, etc. […] Based on the data, it has been determined that there is a direct correlation between the log (EC50)^-1 and the electronic effect of a substituent (a) or more precisely the sum of the sigma (σ) values. (The greater the electron withdrawing ability of a substituent, the higher the value of σ, while a better electron donating group has a lower value of σ.) There appears to be a direct correlation between log (EC50)^-1 and the Σσ; as the Σσ increases, so does the log (EC50)^-1. The addition of substituents to the diphenyl sulfone will affect the factors discussed hereinabove, thus both the log (EC50)^-1 and the Σσ will be affected. Thus for the diphenyl sulfone derivative [drawing 25] the relation is […]

[2] = Storage in a clear glass bottle; type: physicochemical; details: several weeks of storage in a clear glass bottle
CEM-V = experiment: XTT toxicity control, uninfected culture, CEM-V; type: cell-based
Protocol: (§1) Another assay for testing the efficacy of the compounds is the procedure* used in the National Cancer Institute's test for agents active against Human Immunodeficiency Virus (HIV). It is designed to detect agents acting at any stage of the virus reproductive cycle. The assay basically involves the killing of T4 lymphocytes by HIV. Small amounts of HIV are added to cells, and a complete cycle of virus reproduction is necessary to obtain the required cell killing. Agents that interact with virions, cells, or virus gene-products to interfere with viral activities will protect cells from cytolysis. The system is automated in several features to accommodate large numbers of candidate agents and is generally designed to detect anti-HIV activity. However, compounds that degenerate, or are rapidly metabolized in the culture conditions may not show activity in this screen. All tests are compared with at least one positive (e.g., AZT-treated) control done at the same time under identical conditions.
(§2) * Weislow. O. W., Kiser, R., Fine, D., Bader, J., Shoemaker, R. H., Boyd, M. R.: New soluble-formazan assay for HIV-1 cytopathic effects: application to high-flux screening of synthetic and natural products for AIDS-antiviral activity. J. Natl. Cancer Inst. 81:577-586, 1989.
(§3) 1. The Candidate agent is dissolved in dimethyl sulfoxide (unless otherwise instructed) then diluted 1:100 in cell culture medium before preparing serial half-log10 dilutions. T4 lymphocytes (CEM cell line) are added and after a brief interval HIV-1 added, resulting in a 1:200 final dilution of the compound. Uninfected cells with the compound serve as a toxicity control, and infected and uninfected cells without compound serve as basic controls.
(§4) 2. Cultures are incubated at 37° in a 5% carbon dioxide atmosphere for 6 days.
(§5) 3. The tetrazolium salt, XTT, is added to all wells, and cultures are incubated to allow formazan color development by viable cells.
(§6) 4. Individual wells are analyzed spectrophotometrically to quantitate formazan production, and in addition are viewed microscopically for detection of viable cells and confirmation of protective activity.
(§7) 5. Drug-treated virus-infected cells are compared with drug-treated noninfected cells and with other appropriate controls (untreated infected and untreated noninfected: cells, drug-containing wells without cells, etc.) on the same plate.
(§8) 6. Data are reviewed in comparison with other tests done at the same time and a determination about activity is made.

[3] = XTT toxicity control, uninfected culture, CEM-Z; type: cell-based; details: human, cem-z cells, read-out: Uninfected culture response
Protocol: as §1, §2, §3, §4, §5, §6, §7, §8

CEM-Z = experiment: XTT toxicity control, uninfected culture, CEM-Z; type: cell-based
Protocol: as §1, §2, §3, §4, §5, §6, §7, §8

[4] = Murine leukemia virus, SC-1, 1 × 10^-4 M, read-out: % Plaque Reduction
[5] = Murine leukemia virus, SC-1, 1 × 10^-5 M, read-out: % Plaque Reduction
[6] = Murine leukemia virus, SC-1, 1 × 10^-6 M, read-out: % Plaque Reduction
[7] = Murine leukemia virus, SC-1, 1 × 10^-7 M, read-out: % Plaque Reduction
[8] = Murine leukemia virus, SC-1, 1 × 10^-8 M, read-out: % Plaque Reduction

For `Cc1ccc(S(=O)(=O)c2ccccc2[N+](=O)[O-])cc1` [Compound 2, 1-(4-Methylphenylsulfonyl)-2-nitrobenzene], the Mean plaque count ([1]; 1 × 10^-3 M) was 19, the “Plaque count, replicate #1” value ([1]; 1 × 10^-3 M) was 20 and the “Plaque count, replicate #2” value ([1]; 1 × 10^-3 M) was 20. For the same compound, the “Plaque count, replicate #3” value ([1]; 1 × 10^-3 M) was 17, the Mean plaque count ([1]; 1 × 10^-4 M) was 8 and the “Plaque count, replicate #1” value ([1]; 1 × 10^-4 M) was 9. The “Plaque count, replicate #2” value ([1]; 1 × 10^-4 M) was 8, the “Plaque count, replicate #3” value ([1]; 1 × 10^-4 M) was 8 and the Mean plaque count ([1]; 1 × 10^-5 M) was 64. The “Plaque count, replicate #1” value ([1]; 1 × 10^-5 M) was 60, the “Plaque count, replicate #2” value ([1]; 1 × 10^-5 M) was 69 and the “Plaque count, replicate #3” value ([1]; 1 × 10^-5 M) was 64. For the same compound, the Mean plaque count ([1]; 1 × 10^-6 M) was 61, the “Plaque count, replicate #1” value ([1]; 1 × 10^-6 M) was 72 and the “Plaque count, replicate #2” value ([1]; 1 × 10^-6 M) was 53. For the same compound, the “Plaque count, replicate #3” value ([1]; 1 × 10^-6 M) was 5, the Mean plaque count ([1]; 1 × 10^-7 M) was 56 and the “Plaque count, replicate #1” value ([1]; 1 × 10^-7 M) was 52. The “Plaque count, replicate #2” value ([1]; 1 × 10^-7 M) was 57, the “Plaque count, replicate #3” value ([1]; 1 × 10^-7 M) was 60 and the Mean plaque count ([1]; 1 × 10^-8 M) was 60. For the same compound, the “Plaque count, replicate #1” value ([1]; 1 × 10^-8 M) was 62, the “Plaque count, replicate #2” value ([1]; 1 × 10^-8 M) was 56 and the “Plaque count, replicate #3” value ([1]; 1 × 10^-8 M) was 63. For the same compound, the inhibition at 1000 µM ([1]; Murine leukemia virus, SC-1, 1 × 10^-3 M, read-out: % Plaque Reduction) was 69%, the inhibition at 100 µM [1, 4] was 87% and the inhibition at 10 µM [1, 5] was 0%. The inhibition at 1 µM [1, 6] was 2%, the inhibition at 0.1 µM [1, 7] was 9% and the inhibition at 0.01 µM [1, 8] was 3%. The EC50 (HIV) was 3.26 µM and the “colour change on storage” value [2] was “turned light green”.

With `O=[N+]([O-])c1ccccc1S(=O)(=O)c1ccccc1` [Compound 1, 1-Nitro-2-(phenylsulfonyl)benzene] the Mean plaque count ([1]; 1 × 10^-4 M) was 46, the “Plaque count, replicate #1” value ([1]; 1 × 10^-4 M) was 43 and the “Plaque count, replicate #2” value ([1]; 1 × 10^-4 M) was 48. The “Plaque count, replicate #3” value ([1]; 1 × 10^-4 M) was 46, the Mean plaque count ([1]; 1 × 10^-5 M) was 53 and the “Plaque count, replicate #1” value ([1]; 1 × 10^-5 M) was 58. The “Plaque count, replicate #2” value ([1]; 1 × 10^-5 M) was 42, the “Plaque count, replicate #3” value ([1]; 1 × 10^-5 M) was 60 and the Mean plaque count ([1]; 1 × 10^-6 M) was 56. For the same compound, the “Plaque count, replicate #1” value ([1]; 1 × 10^-6 M) was 71, the “Plaque count, replicate #2” value ([1]; 1 × 10^-6 M) was 43 and the “Plaque count, replicate #3” value ([1]; 1 × 10^-6 M) was 53. For the same compound, the Mean plaque count ([1]; 1 × 10^-7 M) was 64, the “Plaque count, replicate #1” value ([1]; 1 × 10^-7 M) was 53 and the “Plaque count, replicate #2” value ([1]; 1 × 10^-7 M) was 69. The “Plaque count, replicate #3” value ([1]; 1 × 10^-7 M) was 71, the Mean plaque count ([1]; 1 × 10^-8 M) was 65 and the “Plaque count, replicate #1” value ([1]; 1 × 10^-8 M) was 64. For the same compound, the “Plaque count, replicate #2” value ([1]; 1 × 10^-8 M) was 55, the “Plaque count, replicate #3” value ([1]; 1 × 10^-8 M) was 76 and the inhibition at 100 µM [1, 4] was 26%. It also gave an inhibition at 10 µM [1, 5] of 14%, an inhibition at 1 µM [1, 6] of 10% and an inhibition at 0.1 µM [1, 7] of 0%. It also gave an inhibition at 0.01 µM [1, 8] of 0%, a Uninfected culture response (CEM-V; 1.79 × 10^-7 Molar, 0.179 µM) of 106.5% and a Uninfected culture response (CEM-V; 1.89 × 10^-4 Molar, 189 µM) of 89.8%. It also gave a Uninfected culture response (CEM-V; 1.89 × 10^-5 Molar, 18.9 µM) of 100.7%, a Uninfected culture response (CEM-V; 1.89 × 10^-6 Molar, 1.89 µM) of 104.6% and a Uninfected culture response (CEM-V; 1.90 × 10^-7 Molar, 0.19 µM) of 105.1%. The Uninfected culture response (CEM-V; 5.67 × 10^-7 Molar, 0.567 µM) was 112.5% and 77.9%, the Uninfected culture response (CEM-V; 5.68 × 10^-8 Molar, 0.0568 µM) was 120.4% and 99.0% and the Uninfected culture response (CEM-V; 5.98 × 10^-5 Molar, 59.8 µM) was 99.2%. It also gave a Uninfected culture response (CEM-V; 5.99 × 10^-6 Molar, 5.99 µM) of 111.3%, a Uninfected culture response (CEM-V; 6.00 × 10^-7 Molar, 0.6 µM) of 98.3% and a Uninfected culture response (CEM-V; 6.01 × 10^-8 Molar, 0.0601 µM) of 101.6%. For the same compound, the viability at 17.9 µM ([3]; 1.79 × 10^-5 Molar) was 101%, the viability at 1.79 µM ([3]; 1.79 × 10^-6 Molar) was 97.9% and the viability at 0.179 µM ([3]; 1.79 × 10^-7 Molar) was 101%. The viability at 56.5 µM ([3]; 5.65 × 10^-5 Molar) was 103%, the viability at 5.66 µM ([3]; 5.66 × 10^-6 Molar) was 98.7% and the viability at 0.567 µM ([3]; 5.67 × 10^-7 Molar) was 99.6%. For the same compound, the viability at 0.0568 µM ([3]; 5.68 × 10^-8 Molar) was 101%, the Uninfected culture response (CEM-Z; 1.78 × 10^-4 Molar, 178 µM) was 72.1% and the Uninfected culture response (CEM-Z; 1.79 × 10^-5 Molar, 17.9 µM) was 103.0%. It also gave a Uninfected culture response (CEM-Z; 1.79 × 10^-6 Molar, 1.79 µM) of 99.7%, a Uninfected culture response (CEM-Z; 1.79 × 10^-7 Molar, 0.179 µM) of 102.5% and a Uninfected culture response (CEM-Z; 5.65 × 10^-5 Molar, 56.5 µM) of 101.8%. The Uninfected culture response (CEM-Z; 5.66 × 10^-6 Molar, 5.66 µM) was 100.0%, the Uninfected culture response (CEM-Z; 5.67 × 10^-7 Molar, 0.567 µM) was 99.8% and the Uninfected culture response (CEM-Z; 5.68 × 10^-8 Molar, 0.0568 µM) was 104.3%. It also gave an IC50 (CEM-Z; uninfected culture (toxicity)) greater than 178 µM and an EC50 (HIV) of 1.16 µM.

Source: US5679695A, “Aryl and heteroaryl compounds having anti-retrovirus activity” (The University of Connecticut, priority 1995, dated 1997)
